# Experiments:
# [1] = Solubility study on curcumin; assay type: physicochemical; details: for Solubility result: 0.5 g of curcumin
# Experimental: Table 1 reports the results of a solubility study on curcumin. […] Curcumin is also not soluble in cold mineral oil or hot mineral oil. However, curcumin is soluble in 70% isopropyl alcohol to at least the extent of 0.5 g/50 ml.
# [2] = tested on: phosphorylase kinase; experiment: Phosphorylase kinase activity in treated psoriatic epidermis (Example 6); assay type: in vivo, human; details: mean±SD, n=10; curcumin alcoholic gel (1%) 4-6 weeks, Dovonex ointment 6-18 months; untreated psoriasis 1204.6±804.3, normal skin 105.4±44.6
# Experimental: With consent, punch biopsies were collected (6 mm) from active plaques of 10 patients with active untreated psoriasis, from resolving plaques from 10 patients each treated with curcumin alcoholic gel (1%) for 4-6 weeks, and with Dovonex ointment for 6-18 months. Normal skin was also biopsied from 10 non-psoriatic patients to monitor the results. From each site, skin biopsy samples (6 mm punch) were stored at −70° C., and processed thereafter as previously described (Heng et al. (1994), supra). Briefly, each frozen sample, with the epidermal surface facing upwards, was placed in a glass tube to which 3 ml Tris-HCl buffer (10 mM Tris-HCl, pH 7.8, 1 mM dithiothreitol (DDT), 3 mM MgSO4 and 1 mM EGTA) was added. This was homogenized vigorously with a Teflon plunger in a TRIS-R model K41 homogenizer for 1 sec. Homogenization was repeated if necessary. The lysate of epidermal cells, separated from the dermis, was in the cytosolic solution. The fibroblasts that were inadvertently detached, together with the relatively intact piece of dermis, were removed by decanting the cytosolic solution into a 5 ml capacity polypropylene test tube. […] The filter paper containing […] was counted in a liquid scintillation counter. Enzyme activity was determined based on the standard curve prepared with phosphorylase kinase of known activity supplied by Sigma Co (St. Louis, Mo.).
# [3] = tested on: TRR+ keratinocytes; experiment: Transferrin receptor (TRR) expression by keratinocytes in treated psoriasis; assay type: in vivo, human; details: mean, n=10; treated resolving psoriasis; untreated 60.1%, normal skin 4.3%
# Experimental: With consent, punch biopsies were collected (6 mm) from active plaques of 10 patients with active untreated psoriasis, from resolving plaques from 10 patients each treated with curcumin alcoholic gel (1%) for 4-6 weeks, and with Dovonex ointment for 6-18 months. Normal skin was also biopsied from 10 non-psoriatic patients to monitor the results. Biopsy specimens for immunocytochemistry were embedded in OCT compound (Tissue-Tek), snap-frozen in liquid nitrogen and stored at −70° C. Serial cryostat sections (4 Tm) were mounted on gelatin-coated slides and air-dried for 30 mins at room temperature. The mounted sections were then freeze-dried for 4 hours, fixed in acetone for 20 mins at room temperature, and air-dried for 5 mins prior to immunostaining. Monoclonal antibodies (as listed at Table 7), were added to the sections, which were then incubated for 60 mins at room temperature, washed in phosphate-buffered saline (PBS) pH 7.6, and overlaid with peroxidase conjugate. All monoclonal antibodies had been obtained from Becton-Dickinson and were used at 1:100 dilution. […] The expression of TRR on basal and suprabasal keratinocytes was quantified as the percentage of TRR+ keratinocytes per rete ridge. The keratinocytes of 10 consecutive rete ridges were assessed in for each biopsy and the results averaged.
# [4] = tested on: parakeratosis of stratum corneum; experiment: Severity of parakeratosis in treated psoriasis; assay type: in vivo, human; details: mean±SD, untreated 94.6±4.3%
# Excerpt: With consent, punch biopsies were collected (6 mm) from active plaques of 10 patients with active untreated psoriasis, from resolving plaques from 10 patients each treated with curcumin alcoholic gel (1%) for 4-6 weeks, and with Dovonex ointment for 6-18 months. Normal skin was also biopsied from 10 non-psoriatic patients to monitor the results. Parakeratosis, assessed histologically by the loss of granular layer and the presence of nuclei of immature keratinocytes within the stratum comeum, reflects in part the migratory capacity of basal keratinocytes towards the stratum comeum. The severity of parakeratosis is assessed as % involvement of a 4 mm linear strip of stratum comeum. An average of three sections per biopsy specimen was used for data analysis.
# [5] = tested on: epidermal CD8+ T cells; experiment: Epidermal CD8+ T-cell density in treated psoriasis; assay type: in vivo, human; details: mean, untreated 38.2
# Experimental: (§1) With consent, punch biopsies were collected (6 mm) from active plaques of 10 patients with active untreated psoriasis, from resolving plaques from 10 patients each treated with curcumin alcoholic gel (1%) for 4-6 weeks, and with Dovonex ointment for 6-18 months. Normal skin was also biopsied from 10 non-psoriatic patients to monitor the results. Biopsy specimens for immunocytochemistry were embedded in OCT compound (Tissue-Tek), snap-frozen in liquid nitrogen and stored at −70° C. Serial cryostat sections (4 Tm) were mounted on gelatin-coated slides and air-dried for 30 mins at room temperature. The mounted sections were then freeze-dried for 4 hours, fixed in acetone for 20 mins at room temperature, and air-dried for 5 mins prior to immunostaining. Monoclonal antibodies (as listed at Table 7), were added to the sections, which were then incubated for 60 mins at room temperature, washed in phosphate-buffered saline (PBS) pH 7.6, and overlaid with peroxidase conjugate. All monoclonal antibodies had been obtained from Becton-Dickinson and were used at 1:100 dilution. The sections were then washed with PBS and the peroxidase color developed using diaminobenzidine. Negative controls from all patients were processed as above, omitting the monoclonal antibodies. […] The density of the epidermal CD8+ T-cells was enumerated and quantified as the number of epidermal CD8+ T cells per hpf. […]
# [6] = tested on: HLA-DR+ cells; experiment: HLA-DR expression in treated psoriasis; assay type: in vivo, human
# Experimental: as §1, with “diaminobenzidine.” for “diaminobenzidine. Negative controls from all patients were processed as above, omitting the monoclonal antibodies.”, “activated HLA+ inflammatory cell population” for “density of the epidermal CD8+ T-cells”, “assessed as abundant (200-500 or more cells/hpf), moderate (50-200 cells/hpf),” for “enumerated”, “sparse (1-50/hpf).” for “quantified as the number of epidermal CD8+ T cells per hpf.”
# [7] = tested on: psoriatic plaques; experiment: Clinical resolution of psoriatic plaques; assay type: in vivo, human; details: clinical observations
# Excerpt: With consent, punch biopsies were collected (6 mm) from active plaques of 10 patients with active untreated psoriasis, from resolving plaques from 10 patients each treated with curcumin alcoholic gel (1%) for 4-6 weeks, and with Dovonex ointment for 6-18 months. Normal skin was also biopsied from 10 non-psoriatic patients to monitor the results.
# In this study, the anti-psoriatic activity of curcumin is reported. Also known as diferuloylmethane, curcumin is a component in spices such as turmeric and ginger. […] Based on clinical observations that untreated psoriatic plaques resolve within 4-6 weeks with curcumin and between 6-18 months or more with Dovonex, the results of this Example lead to the conclusion that curcumin is at least as effective as Dovonex in producing clinical resolution of psoriatic plaques.
# [8] = tested on: CD3+ T lymphocytes; experiment: CD3+ T lymphocytes in curcumin-treated psoriatic skin (immunohistochemistry, FIG. 9); assay type: in vivo, human; details: FIG. 9b; T lymphocytes present only within dermal blood vessels
compound,measurement,setting,value
"COc1cc(/C=C/C(=O)CC(=O)/C=C/c2ccc(O)c(OC)c2)ccc1O [curcumin, (E, E) 1,7-bis(4-hydroxy-3-methoxyphenyl)-1,6-heptadiene-3,5-dione]",Solubility in 70% isopropyl alcohol,[1]; 70% isopropyl alcohol,≥ 0.5 g/50 ml
same,Solubility result,"[1]; 70% isopropyl alcohol, 5 ml",Soluble (some precipitate?
same,Solubility result,"[1]; 70% isopropyl alcohol, 50 ml",Soluble (no precipitate)
same,Solubility result,"[1]; Cold water, 5 ml",Not soluble (precipitate present)
same,Solubility result,"[1]; Cold water, 50 ml",Not soluble (precipitate present)
same,Solubility result,"[1]; Cold water, 500 ml",Not soluble (precipitate present)
same,Solubility result,"[1]; Mineral oil (140° F.), 5 ml",Not soluble (precipitate present)
same,Solubility result,"[1]; Mineral oil (140° F.), 50 ml",Not soluble (precipitate present)
same,Solubility result,"[1]; Mineral oil, 5 ml",Not soluble (precipitate present)
same,Solubility result,"[1]; Mineral oil, 50 ml",Not soluble (precipitate present)
same,Solubility result,"[1]; Water (200° F.), 5 ml",Not soluble (precipitate present)
same,Solubility result,"[1]; Water (200° F.), 50 ml",Not soluble (precipitate present)
same,Solubility result,"[1]; Water (200° F.), 500 ml",Not soluble (precipitate present)
same,Solubility,[1]; cold mineral oil,not soluble
same,Solubility,[1]; cold water,not soluble
same,Solubility,[1]; hot mineral oil,not soluble
same,Solubility,[1]; hot water,not soluble
same,Phosphorylase kinase activity in treated psoriatic epidermis,[2],207.2±97.6 units/mg protein
same,Percentage of TRR+ keratinocytes/rete ridge,[3],4.3%
same,"Parakeratosis, linear involvement of stratum corneum",[4],1.4±2.4%
same,Number of epidermal CD8+ cells/hpf,[5],0.6 cells/hpf
same,"Overall HLA-DR expression (HLA-DR+ inflammatory cell population), grade per specimen","[6]; 10 skin specimens per treated group, untreated abundant in 10/10",sparse (sparse (1-50/hpf))
same,HLA-DR expression on endothelial cells and keratinocytes,"[6]; treated psoriasis, untreated strongly positive",not observed
same,Time for psoriatic plaques to resolve under curcumin treatment,[7],4-6 weeks
same,CD3+ T lymphocytes in epidermis of treated resolving psoriatic skin,[8],lack of T lymphocytes in epidermis

# Reference: patent publication US20010051184A1, “METHOD FOR USING SOLUBLE CURCUMIN TO INHIBIT PHOSPHORYLASE KINASE IN INFLAMMATORY DISEASES” (priority 1999, published 2001)
